Data taken from US5856358A, “Mono- and disulfo-substituted anthraquinones and their use for the treatment of bone matrix disorders” (priority 1995, dated 1999).
Read-outs that look alike come from different tables or passages of the source.

How the values were obtained:
[1] = Adjuvant arthritis (Freund's complete adjuvant) in the rat: paw volume, radiography, histology; assay type: in vivo, rat (albino Sprague Dawley); details: for Volume increase in the oedema after 15 days, left paw / Volume increase in the oedema after 15 days, right paw: 20 mg/kg/os; for Volume increase in the oedema after 15 days, left paw: left (adjuvant-injected) rear paw, control 252 ± 26; for Volume increase in the oedema after 15 days, right paw: right rear paw, control 77 ± 29
Experimental: The test evaluates the effect of the compounds anthraquinone-2,6-disulfonicacid and N,N'-diethylanthraquinone-2,6-disulfonamide on rheumatoid arthritis in the rat induced by administration of complete Freund's adjuvant. Diacetylrhein was used as control.
For the test, albino Sprague Dawley rats weighing 200±10 g, were subdivided into four groups of six animals each. All of the compounds were administered orally at a dosage of 20 mg/kg. Arthritis was induced administering all the animals, in the left rear paw, with 5 mg of Freund's complete adjuvant suspended in 0.05 ml of paraffin oil (prior to the treatment, the paw volume of both rear paws was measured). The treatment with the tested products started 5 days after the arthritis induction and was carried out for ten days. Al the end of this time, the animals were killed to effect the analysis of the following evaluation parameters: measurement of the volume of both left and right rear paws; Rx in lateral and antero-posterior position of the tibio-tarsal articulation of the left paw; histology evaluation of the articulation of both left and right rear paws.

[2] = test system: Chinese hamster ovary (CHO) cells; experiment: Test of induction of chromosomal aberrations; assay type: cell-based; details: for Aberrations complex (C) / Aberrations simple (S) / Aberrations S + C: 100 metaphases; for Metaphases with aberrations: + S-9
Experimental: The clastogenetic effect of rhein and of 2,6-anthraquinonedisulfonic acid, was evaluated using the test of the induction of chromosomal aberrations in cell cultures of chinese hamster ovary (CHO). In this test, the cell line was treated with the tested substances and with suitable controls, in the presence of a metabolic activation system for four hours. After that, the cell in growth exponential phase were treated with colchicine (Colcemid^R) for 90 minutes, so as to obtain a significant number of cells in metaphase and to recover them for the preparation of the chromosome suspension. As the positive standard, cyclophosphamide was used (1-5-10-12.5-25 μg/ml).
The toxicity of the tested compounds was evaluated by means of the assay of the efficiency of plating, treating the cells for four hours, then seeding them at a concentration of 200 cells/5 ml of fresh culture medium.
On the ground of the results obtained by means of this test, dosages were selected for the treatment in the test of induction of chromosomal aberrations, so as not to exceed, with the highest dosage, 50% toxicity levels.
The chromosomal aberrations were recorded describing the type of structural damage. The numeric aberrations and gaps were discarded. Metaphases showing a good chromosomal opening, a good staining and an acceptable chromosome number (20±2) were selected. For statistical evaluations of the results, the quadratic Chi test was used.

[3] = test system: copper "scavenging" of superoxide anion produced by the hypoxanthine/xanthine oxidase system; experiment: Copper "scavenging" effect (superoxide anion from hypoxanthine/xanthine oxidase system, cytochrome C); assay type: biochemical; details: for % Reduction (effect on copper "scavenging" action): hypoxanthine/xanthine oxidase, cytochrome c
Source text: The study involves the production of superoxide anion by means of the hypoxanthine/xanthine oxidase system and the target is the reduction in cytochrome C iron content. […] Copper chelants inhibit such a "scavenging" effect.

[4] = test system: superoxide anion from NADPH-dependent biological systems; details: Mian M. et al. 1987; cited from earlier work
[5] = test system: elastase; details: from man; Raimondi 1982, Zembower 1992; cited from earlier work
[6] = test system: cathepsin G; details: from man; Raimondi 1982, Zembower 1992; cited from earlier work
[7] = background art; cited from earlier work
[8] = background art (U.S. Pat. No. 4,244,968); cited from earlier work
[9] = test system: ceruloplasmin; details: acute phase of arthritis inflammation; background art; cited from earlier work
[10] = target: T1, human cathepsin B (Homo sapiens, UniProt P07858); experiment: Effects on human cathepsin B enzymatic activity; assay type: biochemical
T1 construct: purchased Calbiochem
Experimental: (§1) Effects on human cathepsin B and L enzymatic activity
(§2) The anthraquinone monosulfonated and disulfonated compounds were dissolved in distilled water whereas the derivatives thereof were dissolved in dimethylsulfoxide. The concentration of the tested product was added to the reaction mixture in a volume of 100 μl.
(§3) Composition of the reaction mixture: 0.005M acetate buffer pH 6.0+2 mM cysteine+1 mM EDTA; Enzyme 1 U/ml (cathepsin B or L) (Calbiochem); substrate 0.2 mM Z-Phe-Arg-AMC (Novabiochem) final reaction volume 2 ml; temperature 25° C.; observation time for cathepsin B: 2 minutes; for L: 8 minutes. This is a fluorimetric determination wherein the excitation wavelength was 380 nm, the emission one being instead 460 nm. Fluorescence was read by means of a Perkin-Elmer spectrophotometer mod. LS-3B.
Anthraquinone-2,6-disulfonic acid: 1-5-10 μM
Anthraquinone-1,5-disulfonic acid: 1-5-10 μM
N,N'-(p-Ethoxyphenyl)-2,6-anthraquinone-disulfonamide: 1-10 μM.

[11] = target: T2, human cathepsin L (Homo sapiens, UniProt P07711); experiment: Effects on human cathepsin L enzymatic activity; assay type: biochemical
T2 construct: purchased Calbiochem
Experimental: as §1, §2, §3

[12] = 20 mg/kg orally, ten days, right paw
[13] = M (mean of experiments 1-3), read-out: % Inhibition
[14] = experiment n. 1, read-out: % Inhibition
[15] = experiment n. 2, read-out: % Inhibition
[16] = experiment n. 3, read-out: % Inhibition

T2 sequence (P07711 114-288 limits assumed): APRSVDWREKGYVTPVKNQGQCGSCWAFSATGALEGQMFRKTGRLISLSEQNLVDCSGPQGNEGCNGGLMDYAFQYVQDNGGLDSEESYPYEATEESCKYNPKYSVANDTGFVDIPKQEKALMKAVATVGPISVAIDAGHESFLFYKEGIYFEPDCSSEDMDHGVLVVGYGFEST
T2 sequence (P07711 292-333 limits assumed): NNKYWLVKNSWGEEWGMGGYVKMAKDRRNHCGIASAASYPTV

CCNS(=O)(=O)c1ccc2c(c1)C(=O)c1ccc(S(=O)(=O)NCC)cc1C2=O [N,N'-Diethyl-2,6-anthraquinonedisulfonamide]
inhibition (reduction) of the increase in the volume of the left rear paw ([1]; 20 mg/kg orally, ten days): 21.4%
inhibition of the increase in the volume of the right paw [1, 12]: 62.3%
Volume increase in the oedema after 15 days, left paw [1]: 198 ± 31
Volume increase in the oedema after 15 days, right paw [1]: 29 ± 12

O=C(O)c1cc(O)c2c(c1)C(=O)c1cccc(O)c1C2=O [Rhein, rhein]
induction of chromosomal aberrations (in words) ([2]; doses of 100 and 200 μg/ml): positive
Aberrations complex (C) ([2]; rhein 25 μg/ml): 1
Aberrations simple (S) ([2]; rhein 25 μg/ml): 1
Aberrations S + C ([2]; rhein 25 μg/ml, N.S.): 2
Aberrations complex (C) ([2]; rhein 50 μg/ml): 3
Aberrations simple (S) ([2]; rhein 50 μg/ml): 1
Aberrations S + C ([2]; rhein 50 μg/ml, N.S.): 4
Aberrations complex (C) ([2]; rhein 100 μg/ml): 6
Aberrations simple (S) ([2]; rhein 100 μg/ml): 3
Aberrations S + C ([2]; rhein 100 μg/ml, P < 0.05): 9
Aberrations complex (C) ([2]; rhein 200 μg/ml): 5
Aberrations simple (S) ([2]; rhein 200 μg/ml): 3
Aberrations S + C ([2]; rhein 200 μg/ml, P < 0.05): 8
inhibition of copper "scavenging" effect (in words) [3]: inhibits said effect
% Reduction (effect on copper "scavenging" action) [3]: 45%
inhibition of formation and release of the superoxide anion [4]: inhibits the formation and release of the superoxide anion
inhibition of elastase activity [5]: inhibits
inhibition of cathepsin G activity [6]: inhibits

CC(=O)Oc1cccc2c1C(=O)c1c(OC(C)=O)cc(C(=O)O)cc1C2=O [Diacetylrhein, diacetylrhein, reference compound]
inhibition (reduction) of the increase in the volume of the left rear paw ([1]; 20 mg/kg orally, ten days): 8.3%
effect on the increase in the volume of the right paw (in words) [1, 12]: complete lack in activity
formation of fibrous tissue in the articulation (histological examination) ([1]; 20 mg/kg orally, tibio-tarsal articulation): remarkably present
Volume increase in the oedema after 15 days, left paw [1]: 231 ± 22
Volume increase in the oedema after 15 days, right paw [1]: 92 ± 30
copper chelation [7]: copper chelating agent
calcium chelation [8]: calcium chelating agent
inhibition of the formation of ceruloplasmin [9]: inhibits the formation of ceruloplasmin

O=C1c2ccc(S(=O)(=O)O)cc2C(=O)c2ccc(S(=O)(=O)O)cc21 [2,6-anthraquinonedisulfonic acid]
inhibition at 1 µM ([10]; M (mean of experiments 1-3)): 40.7%
inhibition at 1 µM ([10]; experiment n. 1): 43.7%
inhibition at 1 µM ([10]; experiment n. 2): 33.7%
inhibition at 1 µM ([10]; experiment n. 3): 38.5%
inhibition at 5 µM ([10]; M (mean of experiments 1-3)): 70.1%
inhibition at 5 µM ([10]; experiment n. 1): 68.5%
inhibition at 5 µM ([10]; experiment n. 2): 65.8%
inhibition at 5 µM ([10]; experiment n. 3): 76%
inhibition at 10 µM ([10]; M (mean of experiments 1-3)): 94.9%
inhibition at 10 µM ([10]; experiment n. 1): 98.9%
inhibition at 10 µM ([10]; experiment n. 2): 98.2%
inhibition at 10 µM ([10]; experiment n. 3): 87.7%
inhibition at 1 µM ([11]; M (mean of tests 1-3)): 35.6%
inhibition at 1 µM ([11]; test n. 1): 39.6%
inhibition at 1 µM ([11]; test n. 2): 31.4%
inhibition at 1 µM ([11]; test n. 3): 35.8%
inhibition at 10 µM ([11]; M (mean of tests 1-3)): 94.5%
inhibition at 10 µM ([11]; test n. 1): 92.1%
inhibition at 10 µM ([11]; test n. 2): 96.5%
inhibition at 10 µM ([11]; test n. 3): 94.8%
inhibition (reduction) of the increase in the volume of the left rear paw ([1]; 20 mg/kg orally, ten days): 18.6%
inhibition of the increase in the volume of the right paw [1, 12]: 67.5%
Volume increase in the oedema after 15 days, left paw [1]: 205 ± 41
Volume increase in the oedema after 15 days, right paw [1]: 25 ± 20
Metaphases with aberrations ([2]; 50 μg/ml, 100 total metaphases, N.S.): 2
Metaphases with aberrations ([2]; 100 μg/ml, 100 total metaphases, N.S.): 4
Metaphases with aberrations ([2]; 150 μg/ml, 100 total metaphases, N.S.): 8
Metaphases with aberrations ([2]; 200 μg/ml, 100 total metaphases, N.S.): 8
Metaphases with aberrations ([2]; 250 μg/ml, 100 total metaphases, N.S.): 6
induction of chromosomal aberrations (in words) ([2]; 50-250 μg/ml): induces no chromosomal aberrations

O=C1c2ccccc2C(=O)c2cc(S(=O)(=O)O)ccc21 [2-AQ, 2-anthraquinonesulfonic acid]
inhibition of copper "scavenging" effect (in words) [3]: nearly inactive
% Reduction (effect on copper "scavenging" action) [3]: 5%

O=P1(N(CCCl)CCCl)NCCCO1 (centres unmarked) [CPS, Cyclophosphamide]
Metaphases with aberrations ([2]; 1 μg/ml, 100 total metaphases, N.S.): 10
Metaphases with aberrations ([2]; 5 μg/ml, 100 total metaphases, P < 0.001): 25
Metaphases with aberrations ([2]; 10 μg/ml, 32 total metaphases, P < 0.001, control 13 of 220): 12
Aberrations complex (C) ([2]; CPS 12.5 μg/ml): 44
Aberrations simple (S) ([2]; CPS 12.5 μg/ml): 0
Aberrations S + C ([2]; CPS 12.5 μg/ml, P < 0.001): 44
Aberrations S + C ([2]; CPS 25 μg/ml, P < 0.001, control 12 of 400): 87
Aberrations complex (C) ([2]; CPS 25 μg/ml, control 4 of 400): 87
Aberrations simple (S) ([2]; CPS 25 μg/ml, control 8 of 400): 0

O=C1c2cccc(S(=O)(=O)O)c2C(=O)c2cccc(S(=O)(=O)O)c21 [1,5-anthraquinonedisulfonic acid, Anthraquinone-1,5-disulfonic acid]
inhibition at 1 µM [10, 13]: 3.4%
inhibition at 1 µM [10, 14]: 4.1%
inhibition at 1 µM [10, 15]: 3.6%
inhibition at 1 µM [10, 16]: 2.5%
inhibition at 5 µM [10, 13]: 9.6%
inhibition at 5 µM [10, 14]: 10.3%
inhibition at 5 µM [10, 15]: 7.2%
inhibition at 5 µM [10, 16]: 11.4%
inhibition at 10 µM [10, 13]: 44.4%
inhibition at 10 µM [10, 14]: 55.1%
inhibition at 10 µM [10, 15]: 36.6%
inhibition at 10 µM [10, 16]: 41.6%
inhibition at 1 µM ([11]; M (mean of tests 1-3)): 8.1%
inhibition at 1 µM ([11]; test n. 1): 10.5%
inhibition at 1 µM ([11]; test n. 2): 8.4%
inhibition at 1 µM ([11]; test n. 3): 5.5%
inhibition at 10 µM ([11]; M (mean of tests 1-3)): 54.3%
inhibition at 10 µM ([11]; test n. 1): 48.6%
inhibition at 10 µM ([11]; test n. 2): 60.5%
inhibition at 10 µM ([11]; test n. 3): 53.9%
% Reduction (effect on copper "scavenging" action) [3]: 4%

O=C1c2ccccc2C(=O)c2c1cccc2S(=O)(=O)O [1-AQ, 1-anthraquinonesulfonic acid]
inhibition of copper "scavenging" effect (in words) [3]: nearly inactive
% Reduction (effect on copper "scavenging" action) [3]: 3%

CCOc1ccc(NS(=O)(=O)c2ccc3c(c2)C(=O)c2ccc(S(=O)(=O)Nc4ccc(OCC)cc4)cc2C3=O)cc1 [N,N'-(p-Ethoxyphenyl)-2,6-anthraquinonedisulfonamide]
inhibition at 1 µM [10, 13]: 19%
inhibition at 1 µM [10, 14]: 23.7%
inhibition at 1 µM [10, 15]: 18.6%
inhibition at 1 µM [10, 16]: 14.8%
inhibition at 10 µM [10, 13]: 80.2%
inhibition at 10 µM [10, 14]: 76.6%
inhibition at 10 µM [10, 15]: 80.6%
inhibition at 10 µM [10, 16]: 83.4%
inhibition at 1 µM ([11]; M (mean of tests 1-3)): 8.8%
inhibition at 1 µM ([11]; test n. 1): 8.5%
inhibition at 1 µM ([11]; test n. 2): 7.1%
inhibition at 1 µM ([11]; test n. 3): 10.9%
inhibition at 10 µM ([11]; M (mean of tests 1-3)): 55.2%
inhibition at 10 µM ([11]; test n. 1): 53.6%
inhibition at 10 µM ([11]; test n. 2): 48.1%
inhibition at 10 µM ([11]; test n. 3): 63.8%
